Some test systems named below: DMS 114 small cell lung; LXFL 529 NSCLC; HOP-18 NSCLC; DLD-1 colon; XF 498 CNS; A498 renal; 786-0 renal.
What all share (assay): NCI-60 cell line screen, 48 h

Molecules are shown by their SMILES.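 Assay format: 96-well plates, 48-hour exposure. TGI marks complete inhibition of growth.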

Drawing on PubChem BioAssay (NCI), this text covers TGI for three compounds.

As to `OC12c3ccccc3C1CCCCCCCCCC21OCCCO1` (configuration not stated), the TGI in the experiment with DMS 114 small cell lung, with LXFL 529 NSCLC, in the experiment with HOP-18 NSCLC, with DLD-1 colon and with XF 498 CNS was above 100 µM each time.
The compound `CCOC(=O)c1csc(NC(=O)CN2CCCCC2)n1` came in with a TGI in the experiment with A498 renal above 100 µM.
The compound `O=S(=O)(O)c1cccc2ccc(O)c(N=Nc3ccc(S(=O)(=O)c4ccc(N=Nc5c(O)ccc6cccc(S(=O)(=O)O)c56)cc4)cc3)c12` had a TGI in the experiment with 786-0 renal above 100 µM.
